In ChEMBL document CHEMBL1201862, “PubChem BioAssay data set” (2004):
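Five compound concentrations were applied to cells in 96-well plates for 48 hours; endpoints were derived by simple linear interpolation of the resulting dose-response curve. The concentration for 50% growth inhibition is given as GI50.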 Activity calls are given as the source filed them. No stated cut-off is given here; in the data, active = GI50 up to about 1.1 µM and inactive = higher.

What was measured:
Assay in all cases: NCI anticancer screen, dose series, 48 h
IGROV-1 = system: IGROV-1
COLO 205 = system: COLO 205
SK-MEL-2 = system: SK-MEL-2
SK-OV-3 = system: SK-OV-3
CAKI-1 = system: CAKI-1
A498 = system: A498
NCI-H23 = system: NCI-H23
HOP-62 = system: HOP-62
HCT-15 = system: HCT-15
UACC-257 = system: UACC-257
KM12 = system: KM12
LOX IMVI = system: LOX IMVI
RPMI-8226 = system: RPMI-8226
NCI-H460 = system: NCI-H460
U-251 = system: U-251
OVCAR-5 = system: OVCAR-5
ACHN = system: ACHN
SNB-19 = system: SNB-19
A549 = system: A549
SK-MEL-5 = system: SK-MEL-5

Measured: GI50

CN1C/C(=C\c2cccs2)C(O)/C(=C/c2cccs2)C1 (stereo not given)
> 100 µM: HCT-15
inactive: IGROV-1 53 µM | COLO 205 87.1 µM | SK-MEL-2 > 100 µM | SK-OV-3 > 100 µM | CAKI-1 97.5 µM | A498 > 100 µM | NCI-H23 > 100 µM | HOP-62 > 100 µM | UACC-257 89.5 µM | KM12 > 100 µM | LOX IMVI > 100 µM | RPMI-8226 20.2 µM | NCI-H460 > 100 µM | U-251 > 100 µM | OVCAR-5 > 100 µM | ACHN > 100 µM | SNB-19 > 100 µM | A549 > 100 µM | SK-MEL-5 > 100 µM

Cc1ccc2c(c1)C(=O)N(N(C)C)CC(=O)N2
> 100 µM: HCT-15
inactive: IGROV-1 > 100 µM | COLO 205 > 100 µM | SK-MEL-2 > 100 µM | SK-OV-3 > 100 µM | CAKI-1 > 100 µM | A498 > 100 µM | NCI-H23 > 100 µM | HOP-62 > 100 µM | UACC-257 > 100 µM | KM12 > 100 µM | LOX IMVI > 100 µM | RPMI-8226 > 100 µM | NCI-H460 > 100 µM | U-251 > 100 µM | OVCAR-5 > 100 µM | ACHN > 100 µM | SNB-19 > 100 µM | A549 > 100 µM | SK-MEL-5 > 100 µM

CC1=C(C)SC(=C2Sc3c(n(C)c(=O)[nH]c3=O)S2)S1
> 100 µM: HCT-15
inactive: IGROV-1 > 100 µM | COLO 205 > 100 µM | SK-MEL-2 > 100 µM | SK-OV-3 > 100 µM | CAKI-1 > 100 µM | A498 > 100 µM | NCI-H23 > 100 µM | HOP-62 > 100 µM | UACC-257 > 100 µM | KM12 > 100 µM | LOX IMVI > 100 µM | RPMI-8226 > 100 µM | NCI-H460 > 100 µM | U-251 > 100 µM | OVCAR-5 > 100 µM | ACHN > 100 µM | SNB-19 > 100 µM | A549 > 100 µM | SK-MEL-5 > 100 µM

CC(C)(C)c1cc(O)ccc1O [E319]
> 100 µM: HCT-15
inactive: IGROV-1 > 100 µM | COLO 205 > 74.6 µM | SK-MEL-2 1.71 µM | SK-OV-3 > 100 µM | CAKI-1 > 57.8 µM | A498 > 100 µM | NCI-H23 > 100 µM | HOP-62 > 100 µM | UACC-257 9.08 µM | KM12 > 100 µM | LOX IMVI > 59.3 µM | RPMI-8226 38.2 µM | NCI-H460 > 12.8 µM | OVCAR-5 > 100 µM | ACHN > 85.5 µM | SNB-19 > 100 µM | A549 > 100 µM | SK-MEL-5 > 100 µM
active: U-251 0.675 µM

Cc1cccc(C(C)C)c1NC(=O)CC1Sc2ccccc2NC1=O (stereo not given)
70.1 µM: HCT-15
inactive: IGROV-1 > 100 µM | COLO 205 > 100 µM | SK-MEL-2 42.5 µM | SK-OV-3 > 100 µM | CAKI-1 > 100 µM | A498 72.4 µM | NCI-H23 > 100 µM | HOP-62 > 100 µM | UACC-257 > 100 µM | KM12 > 100 µM | LOX IMVI 94.4 µM | RPMI-8226 57.4 µM | NCI-H460 > 100 µM | U-251 > 100 µM | OVCAR-5 > 100 µM | ACHN > 100 µM | SNB-19 > 100 µM | A549 87.3 µM | SK-MEL-5 35.4 µM
